Consider 27 compounds from article PMC4102417 (PLoS Neglected Tropical Diseases, 2014).

What is called EC50 is the concentration at which the effect is half-maximal.

The test system of experiment [1] is 3T3 fibroblast cells. As to the kind of experiment: cells. Format: cell-based, murine. To be noted: for activity at 10 µM: Mus musculus, NIH3T3, 72 h, read-out: Mammalian (3T3) cell % growth at 10 uM.
Experiment [2] has as its system T. cruzi (Tulahuen strain). As to the kind of experiment: microbe, parasite or virus in culture. The format is cell-based, Trypanosoma cruzi. The note with it: for activity at 10 µM / EC50: Trypanosoma cruzi, TULAHUEN, Fibroblast; for activity at 10 µM: 120 h, read-out: T. cruzi % growth @ 10 uM (Amastigotes); for EC50: read-out: T. cruzi EC50. In outline: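 Tulahuen parasites expressing beta-galactosidase were added (1×10^4 trypomastigotes/well) to 3T3 fibroblasts plated 24 h earlier, 4 h before compound (10 µM final).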

“And” between values parts separate entries of the source, which are not always exact repeats. Identical values can stand only once. Counter-ions that a name gives are not always drawn. Like-named read-outs stand apart in the source and are kept apart here.

In the case of `CSc1ccc2c(c1)C(N1CCN(C)CC1)Cc1ccccc1S2` (centres unmarked) [METHIOTHEPIN, (2Z)-but-2-enedioic acid; 1-methyl-4-[6-(methylsulfanyl)-2-thiatricyclo[9.4.0.0^{3,8}]pentadeca-1(15),3,5,7,11,13-hexaen-9-yl]piperazine], the activity at 10 µM in experiment [1] (10 uM, Table S2) was determined as 69.6%; in experiment [2] (10 uM, Table S2), 4.4%.
Regarding `CC(=O)OC1C(=O)C2(C)C(O)CC3OCC3(OC(C)=O)C2C(OC(=O)c2ccccc2)C2(O)CC(OC(=O)C(O)C(NC(=O)c3ccccc3)c3ccccc3)C(C)=C1C2(C)C` (centres unmarked) [PACLITAXEL, 4,12-bis(acetyloxy)-1,9-dihydroxy-15-{[2-hydroxy-3-phenyl-3-(phenylformamido)propanoyl]oxy}-10,14,17,17-tetramethyl-11-oxo-6-oxatetracyclo[11.3.1.0^{3,10}.0^{4,7}]heptadec-13-en-2-yl benzoate], the activity at 10 µM in experiment [1] (10 uM, Table S1) is 58.1%; in experiment [2] (10 uM, Table S1), 0.2%.
Turning to `N#Cc1nn(-c2c(Cl)cc(C(F)(F)F)cc2Cl)c(N)c1[S+]([O-])C(F)(F)F` (centres unmarked) [FIPRONIL, 5-amino-1-[2,6-dichloro-4-(trifluoromethyl)phenyl]-4-(trifluoromethane)sulfinyl-1H-pyrazole-3-carbonitrile], the activity at 10 µM in experiment [1] (10 uM, Table S2) turned out to be 100%; in experiment [2] (10 uM, Table S2), 3.7%.
The corresponding values for `CC(C1OC(C)(C)C(O)C1O)C1CCC2(C)C3=CCC4C(C)(C)C(=O)CCC4(C)C3CCC12C` (centres unmarked) [ODORATONE, 14-[1-(3,4-dihydroxy-5,5-dimethyloxolan-2-yl)ethyl]-2,6,6,11,15-pentamethyltetracyclo[8.7.0.0^{2,7}.0^{11,15}]heptadec-9-en-5-one] are 92.7% and 9.9%.
With `O=C(O)CC[N+](=O)[O-]` [BOVINOCIDIN, 3-nitropropanoic acid], the activity at 10 µM in experiment [1] is 88.6%; in experiment [2] (10 uM, Table S2), 14.1%.
Regarding `C=C(C)C1CCC2(CO)CCC3(C)C(CCC4C5(C)CCC(O)C(C)(C)C5CCC43C)C12` (centres unmarked) [BETULIN, 5-(hydroxymethyl)-1,2,14,18,18-pentamethyl-8-(prop-1-en-2-yl)pentacyclo[11.8.0.0^{2,10}.0^{5,9}.0^{14,19}]henicosan-17-ol], the activity at 10 µM in experiment [1] (10 uM, Table S2) was determined as 100%; in experiment [2] (10 uM, Table S2) it was 9.7%.
For the compound `COc1cc2c(cc1OC)-c1cc3ccc(OC)c(OC)c3c[n+]1CC2.[Cl-]` [PALMATINE, 3,4,10,11-tetramethoxy-7,8-dihydro-6000000l^5-azatetraphen-6-ylium l^3-chloridyl], in experiment [1] (10 uM, Table S2), the “Mammalian (3T3) cell % growth at 10 uM” value was 100.0% and 95.9%. Besides, the “T. cruzi % growth @ 10 uM (Amastigotes)” value in experiment [2] (10 uM, Table S2) is 8.1% and 11.5%.
For the compound `CC(=O)OC1CC2C(C)(C)C(=O)CCC2(C)C2CCC3(C)C(c4ccoc4)OC(=O)C4OC43C12C` (centres unmarked) [DIHYDROGEDUNIN, 7-(furan-3-yl)-1,8,12,16,16-pentamethyl-5,15-dioxo-3,6-dioxapentacyclo[9.8.0.0^{2,4}.0^{2,8}.0^{12,17}]nonadecan-19-yl acetate], the activity at 10 µM in experiment [1] (10 uM, Table S2) is 81.4%; in experiment [2] (10 uM, Table S2), 5.8%.
In the same order, the values of `CC(=O)OC1(C(C)=O)CCC2C3C=C(Cl)C4=CC(=O)CCC4(C)C3CCC21C` (centres unmarked) [CHLORMADINONE ACETATE, 14-acetyl-8-chloro-2,15-dimethyl-5-oxotetracyclo[8.7.0.0^{2,7}.0^{11,15}]heptadeca-6,8-dien-14-yl acetate] are 97.4% and 9.7%.
For `COc1cc2ccc(=O)oc2c(O)c1O` [FRAXETIN, 7,8-dihydroxy-6-methoxy-2H-chromen-2-one], the activity at 10 µM amounted to 100% in experiment [1] (10 uM, Table S2) and 8.1% in experiment [2] (10 uM, Table S2).
As to `COC(=O)C1C2CC3c4[nH]c5cc(OC)ccc5c4CCN3CC2CC(OC(=O)c2cc(OC)c(OC)c(OC)c2)C1OC` (centres unmarked) [RESERPINE, methyl 6,18-dimethoxy-17-[(3,4,5-trimethoxyphenyl)carbonyloxy]-3,13-diazapentacyclo[11.8.0.0^{2,10}.0^{4,9}.0^{15,20}]henicosa-2(10),4(9),5,7-tetraene-19-carboxylate], the activity at 10 µM in experiment [1] (10 uM, Table S2) was 100%; in experiment [2] (10 uM, Table S2), 4%. The EC50 in experiment [2] (Table S2, amastigotes) is 5.97 µM; in experiment [2] it was under 10 µM.
Turning to `COc1c(C)c2c(c(O)c1CC=C(C)CCC(=O)O)C(=O)OC2` [MYCOPHENOLIC ACID, 6-(4-hydroxy-6-methoxy-7-methyl-3-oxo-1,3-dihydro-2-benzofuran-5-yl)-4-methylhex-4-enoic acid], the activity at 10 µM in experiment [1] (10 uM, Table S2) was 97.2%; in experiment [2] (10 uM, Table S2), 12.2%. In addition, the EC50 in experiment [2] (Table S2, amastigotes) turned out to be 0.32 µM.
As to `COC(=O)c1cc(O)c(=O)c2c(O)c(O)ccc2c1` [methyl 3,4,6-trihydroxy-5-oxo-5H-benzo[7]annulene-8-carboxylate], the activity at 10 µM in experiment [1] (10 uM, Table S2) came to 92.2%; in experiment [2] (10 uM, Table S2), 18.2%.
On to `Oc1ccc(O)cc1` [HYDROQUINONE, benzene-1,4-diol], for which the activity at 10 µM amounted to 93.9% in experiment [1] and 22.6% in experiment [2].
Take `CC(C)CCCC(C)C1CCC2C3CC(=O)C4CC(O)CCC4(C)C3CCC12C` (stereo not drawn) [5alpha-CHOLESTAN-3beta-OL-6-ONE, 5-hydroxy-2,15-dimethyl-14-(6-methylheptan-2-yl)tetracyclo[8.7.0.0^{2,7}.0^{11,15}]heptadecan-8-one]: the activity at 10 µM in experiment [1] (10 uM, Table S2) was determined as 100%; in experiment [2] (10 uM, Table S2), 7.8%.
The corresponding values for `CNc1ccccc1C(=O)N1CCc2c([nH]c3ccccc23)C1=O` [RHETSININE, 2-{[2-(methylamino)phenyl]carbonyl}-1H,2H,3H,4H,9H-pyrido[3,4-b]indol-1-one] are 75.7% and 5.9%.
The corresponding values for `CNc1ccc(C(=O)CC(O)CCC(C)C2OC(=O)CC(O)CC(=O)CC(O)CC(O)CC(O)CC(O)CC3(O)CC(O)C(C(=O)OC)C(CC(O[C@@H]4O[C@H](C)[C@@H](O)[C@H](N)[C@@H]4O)/C=C/C=C/C=C/C=C\C=C/C=C/C=C/C2C)O3)cc1` (stereo partly drawn) [MEPARTRICIN, methyl (19E,21E,23Z,25Z,27E,29E,31E)-33-{[(2R,3S,4S,5S,6R)-4-amino-3,5-dihydroxy-6-methyloxan-2-yl]oxy}-1,3,5,7,9,13,37-heptahydroxy-17-{5-hydroxy-7-[4-(methylamino)phenyl]-7-oxoheptan-2-yl}-18-methyl-11,15-dioxo-16,39-dioxabicyclo[33.3.1]nonatriaconta-19,21,23,25,27,29,31-heptaene-36-carboxylate] are 97.3% and 2.6%.
The corresponding values for `COC(=O)CC1C(C)(C)C(OC(C)=O)C2C(OC(C)=O)C34OC2(O)C1(C)C3CCC1(C)C4=CC(=O)OC1c1ccoc1` (centres unmarked) [[…], methyl 2-[14,18-bis(acetyloxy)-6-(furan-3-yl)-16-hydroxy-7,11,13,13-tetramethyl-4-oxo-5,17-dioxapentacyclo[13.2.1.0^{1,10}.0^{2,7}.0^{11,16}]octadec-2-en-12-yl]acetate] are 89.7% and 7.2%.
Consider `CC(CC(O)C1OC1(C)C)C1CCC2(C)C3=CCC4C(C)(C)C(=O)CCC4(C)C3CCC12C` (centres unmarked) [NILOTICIN, 14-[4-(3,3-dimethyloxiran-2-yl)-4-hydroxybutan-2-yl]-2,6,6,11,15-pentamethyltetracyclo[8.7.0.0^{2,7}.0^{11,15}]heptadec-9-en-5-one], for which the activity at 10 µM in experiment [1] (10 uM, Table S2) amounted to 100%; in experiment [2] (10 uM, Table S2), 2.2%.
The corresponding values for `Nc1nc(=S)c2[nH]cnc2[nH]1` [THIOGUANINE, 2-amino-6,7-dihydro-3H-purine-6-thione] are 98.3% and 14.8%.
The corresponding values for `CC1(C)C2CC(=O)O[C@@]3(C)C4=CC(=O)O[C@@H](c5ccoc5)[C@]4(C)CCC3[C@@]2(C)C=C[C@H]1O` (some centres unmarked) [DEOX[…]] are 82.7% and 13.2%.
For the compound `CN(C)CCCN1c2ccccc2Sc2ccccc21` [PROMAZINE, dimethyl[3-(10H-phenothiazin-10-yl)propyl]amine hydrochloride], the activity at 10 µM in experiment [1] (10 uM, Table S2) was found to be 98.7%; in experiment [2] (10 uM, Table S2), 9.2%.
In the same order, the values of `NCC(=O)c1ccccc1` [PHENACYLAMINE, 2-amino-1-phenylethan-1-one hydrochloride] are 85.5% and 4.8%.
`COc1cc2nc(N3CCN(C(=O)c4ccco4)CC3)nc(N)c2cc1OC` [PRAZOSIN HYDROCHLORIDE, 2-{4-[(furan-2-yl)carbonyl]piperazin-1-yl}-6,7-dimethoxyquinazolin-4-amine hydrochloride]: the activity at 10 µM came to 70.7% in experiment [1] (10 uM, Table S2) and 1.8% in experiment [2] (10 uM, Table S2). For the same compound, the EC50 is 8.36 µM in experiment [2] (Table S2, amastigotes) and under 10 µM in experiment [2].
Turning to `O=c1c(O)c(-c2ccc(O)c(O)c2)oc2c(OC3OC(CO)C(O)C(O)C3O)c(O)cc(O)c12` (centres unmarked) [GOSSYPIN, 2-(3,4-dihydroxyphenyl)-3,5,7-trihydroxy-8-{[3,4,5-trihydroxy-6-(hydroxymethyl)oxan-2-yl]oxy}-4H-chromen-4-one], the activity at 10 µM is 100% in experiment [1] (10 uM, Table S2) and 17.7% in experiment [2] (10 uM, Table S2).
Turning to `CCC1(O)C(=O)OCc2c1cc1n(c2=O)Cc2cc3ccccc3nc2-1` (centres unmarked) [CAMPTOTHECIN, 19-ethyl-19-hydroxy-17-oxa-3,13-diazapentacyclo[11.8.0.0^{2,11}.0^{4,9}.0^{15,20}]henicosa-1(21),2,4(9),5,7,10,15(20)-heptaene-14,18-dione], the activity at 10 µM stood at 94.3% in experiment [1] and 3.9% in experiment [2] (10 uM, Table S2).
Regarding `COC(=O)C[C@H]1C(C)(C)[C@@H](O)[C@@H]2CC3=C4CC(O)O[C@@H](c5ccoc5)[C@]4(C)CCC3[C@@]1(C)C2=O` (stereo partly drawn) [3,16-DIDEOXYMEXICANOLIDE-3beta-DIOL], the activity at 10 µM in experiment [1] (10 uM, Table S2) was 99.8%; in experiment [2] (10 uM, Table S2) it was 22.1%.
